Results from patent publication US7632972B2, “Compounds and methods for treatment of cancer and modulation of programmed cell death for melanoma and other cancer cells” (The Board of Trustees of the University of Illionis, priority 2003, dated 2009).

Experiments:
[1] = test system: human tumor cell lines; assay: NCI DTP 60 human tumor cell line screen (whole panel or cell lines not listed singly); assay type: cell-based; conditions: NCI panel of human cancer cell lines
Source text: Selected compounds were identified for additional testing against a panel of human cancer cell lines maintained by the National Cancer Institute.
Potential anti-cancer agents are screened, and in certain instances were screened, using a screening system provided and performed by the National Cancer Institute (NCl). See http://dtp.nci.nih.gov/docs/misc/common_files/submit_compounds.html. The Developmental Therapeutics Program (DTP) of NCl operates an anti-cancer screening program. The program accepts both natural and synthetic compounds. For screening of natural products extracts, the Natural Products Branch can be contacted.
The operation of this screen utilizes 60 different human tumor cell lines, representing leukemia, melanoma and cancers of the lung, colon, brain, ovary, breast, prostate, and kidney. The aim is to prioritize for further evaluation, synthetic compounds or natural product samples showing selective growth inhibition or cell killing of particular tumor cell lines. […]
Following drug addition, the plates are incubated for an additional 48 h at 37° C., 5% CO2, 95% air, and 100% relative humidity. […] Bound stain is subsequently solubilized with 10 mM trizma base, and the absorbance is read on an automated plate reader at a wavelength of 515 nm. […]

[2] = test system: IGROV1; assay: NCI 60 cell line screen (SRB), Ovarian Cancer; assay type: cell-based, human
Source text: (§1) The operation of this screen utilizes 60 different human tumor cell lines, representing leukemia, melanoma and cancers of the lung, colon, brain, ovary, breast, prostate, and kidney. The aim is to prioritize for further evaluation, synthetic compounds or natural product samples showing selective growth inhibition or cell killing of particular tumor cell lines. This screen is unique in that the complexity of a 60 cell line dose response produced by a given compound results in a biological response pattern which can be utilized in pattern recognition algorithms. Using these algorithms, it is possible to assign a putative mechanism of action to a test compound, or to determine that the response pattern is unique and not similar to that of any of the standard prototype compounds included in the NCl database (see DTP Overview tab). In addition, following characterization of various cellular molecular targets in the 60 cell lines, it may be possible to select compounds most likely to interact with a specific molecular target.
(§2) The human tumor cell lines of the cancer screening panel are grown in RPMI 1640 medium containing 5% fetal bovine serum and 2 mM L-glutamine. For a typical screening experiment, cells are inoculated into 96 well microtiter plates in 100 μL at plating densities ranging from 5,000 to 40,000 cells/well depending on the doubling time of individual cell lines. After cell inoculation, the microtiter plates are incubated at 37° C., 5% CO2, 95% air and 100% relative humidity for 24 h prior to addition of experimental drugs.
(§3) After 24 h, two plates of each cell line are fixed in situ with TCA, to represent a measurement of the cell population for each cell line at the time of drug addition (Tz). Experimental drugs are solubilized in dimethyl sulfoxide at 400-fold the desired final maximum test concentration and stored frozen prior to use. At the time of drug addition, an aliquot of frozen concentrate is thawed and diluted to twice the desired final maximum test concentration with complete medium containing 50 μg/ml gentamicin. Additional four, 10-fold or ½ log serial dilutions are made to provide a total of five drug concentrations plus control. Aliquots of 100 μl of these different drug dilutions are added to the appropriate microtiter wells already containing 100 μl of medium, resulting in the required final drug concentrations.
(§4) Following drug addition, the plates are incubated for an additional 48 h at 37° C., 5% CO2, 95% air, and 100% relative humidity. For adherent cells, the assay is terminated by the addition of cold TCA. Cells are fixed in situ by the gentle addition of 50 μl of cold 50% (w/v) TCA (final concentration, 10% TCA) and incubated for 60 minutes at 4° C. The supernatant is discarded, and the plates are washed five times with tap water and air dried. Sulforhodamine B (SRB) solution (100 μl) at 0.4% (w/v) in 1% acetic acid is added to each well, and plates are incubated for 10 minutes at room temperature. After staining, unbound dye is removed by washing five times with 1% acetic acid and the plates are air dried. Bound stain is subsequently solubilized with 10 mM trizma base, and the absorbance is read on an automated plate reader at a wavelength of 515 nm. For suspension cells, the methodology is the same except that the assay is terminated by fixing settled cells at the bottom of the wells by gently adding 50 μl of 80% TCA (final concentration, 16% TCA). Using the seven absorbance measurements [time zero, (Tz), control growth, (C), and test growth in the presence of drug at the five concentration levels (Ti)], the percentage growth is calculated at each of the drug concentrations levels. Percentage growth inhibition is calculated as: [(Ti−Tz)/(C−Tz)]×100 for concentrations for which Ti>/=Tz [(Ti−Tz)/Tz]×100 for concentrations for which Ti<Tz.
(§5) Three dose response parameters are calculated for each experimental agent. […]

[3] = test system: OVCAR-8; assay: NCI 60 cell line screen (SRB), Ovarian Cancer; assay type: cell-based, human
Source text: as §1, §2, §3, §4, §5

[4] = test system: OVCAR-3; assay: NCI 60 cell line screen (SRB), Ovarian Cancer; assay type: cell-based, human
Source text: as §1, §2, §3, §4, §5

[5] = test system: OVCAR-5; assay: NCI 60 cell line screen (SRB), Ovarian Cancer; assay type: cell-based, human
Source text: as §1, §2, §3, §4, §5

[6] = test system: OVCAR-4; assay: NCI 60 cell line screen (SRB), Ovarian Cancer; assay type: cell-based, human
Source text: as §1, §2, §3, §4, §5

COc1cccc(CCNC(=O)CC(c2ccccc2)(c2ccccc2)c2ccccc2)c1 [Compound Z3]
activity against colon cancer cells [1]: significant activity | activity against melanoma cells [1]: significant activity | TGI ([2]; IGROV1): >1.00E−04 | Percent Growth ([2]; IGROV1, Log10 Concentration −4.0): 10% | Percent Growth ([2]; IGROV1, Log10 Concentration −5.0): 22% | Percent Growth ([2]; IGROV1, Log10 Concentration −6.0): 23% | Percent Growth ([2]; IGROV1, Log10 Concentration −7.0): 63% | Percent Growth ([2]; IGROV1, Log10 Concentration −8.0): 29% | CC50 ([2]; IGROV1, read-out: LC50 (the source's name)): > 100 µM | GI50 ([3]; OVCAR-8): 4.98 µM | TGI ([3]; OVCAR-8): 4.77E−05 | Percent Growth ([3]; OVCAR-8, Log10 Concentration −4.0): −16% | Percent Growth ([3]; OVCAR-8, Log10 Concentration −5.0): 33% | Percent Growth ([3]; OVCAR-8, Log10 Concentration −6.0): 88% | Percent Growth ([3]; OVCAR-8, Log10 Concentration −7.0): 117% | Percent Growth ([3]; OVCAR-8, Log10 Concentration −8.0): 116% | CC50 ([3]; OVCAR-8, read-out: LC50 (the source's name)): > 100 µM | GI50 ([4]; OVCAR-3): 4.77 µM | TGI ([4]; OVCAR-3): >1.00E−04 | Percent Growth ([4]; OVCAR-3, Log10 Concentration −4.0): 19% | Percent Growth ([4]; OVCAR-3, Log10 Concentration −5.0): 40% | Percent Growth ([4]; OVCAR-3, Log10 Concentration −6.0): 71% | Percent Growth ([4]; OVCAR-3, Log10 Concentration −7.0): 102% | Percent Growth ([4]; OVCAR-3, Log10 Concentration −8.0): 90% | CC50 ([4]; OVCAR-3, read-out: LC50 (the source's name)): > 100 µM | GI50 ([5]; OVCAR-5): 11.7 µM | TGI ([5]; OVCAR-5): >1.00E−04 | Percent Growth ([5]; OVCAR-5, Log10 Concentration −4.0): 15% | Percent Growth ([5]; OVCAR-5, Log10 Concentration −5.0): 53% | Percent Growth ([5]; OVCAR-5, Log10 Concentration −6.0): 83% | Percent Growth ([5]; OVCAR-5, Log10 Concentration −7.0): 87% | Percent Growth ([5]; OVCAR-5, Log10 Concentration −8.0): 90% | CC50 ([5]; OVCAR-5, read-out: LC50 (the source's name)): > 100 µM | GI50 ([6]; OVCAR-4): > 100 µM | TGI ([6]; OVCAR-4): >1.00E−04 | Percent Growth ([6]; OVCAR-4, Log10 Concentration −4.0): 92% | Percent Growth ([6]; OVCAR-4, Log10 Concentration −5.0): 80% | Percent Growth ([6]; OVCAR-4, Log10 Concentration −6.0): 82% | Percent Growth ([6]; OVCAR-4, Log10 Concentration −7.0): 106% | Percent Growth ([6]; OVCAR-4, Log10 Concentration −8.0): 92% | CC50 ([6]; OVCAR-4, read-out: LC50 (the source's name)): > 100 µM
